Data as given in patent US10654829B2, “Crystalline forms and compositions of CFTR modulators” (Vertex Pharmaceuticals Incorporated, priority 2017, dated 2020).
“Also recorded” adds a separate entry of the source. Read-outs that look alike come from different tables or passages of the source.

How the values were obtained:
pKa determination = format: physicochemical
F508del-CFTR [1] = molecular target: T1, F508del-CFTR (Homo sapiens, UniProt P13569, DEL508-508); assay: Membrane potential optical (FLIPR) assay for F508del-CFTR modulators; format: cell-based; parameters: expressed in transfected cells
Excerpt: The assay utilizes fluorescent voltage sensing dyes to measure changes in membrane potential using a fluorescent plate reader (e.g., FLIPR III, Molecular Devices, Inc.) as a readout for increase in functional F508del in NIH 3T3 cells. The driving force for the response is the creation of a chloride ion gradient in conjunction with channel activation and concurrent with compound treatment by a single liquid addition step after the cells have previously been loaded with a voltage sensing dye.
To identify modulators of F508del, a fluorescence based HTS assay format was developed. This HTS assay utilizes fluorescent voltage sensing dyes to measure changes in membrane potential on the FLIPR III as a measurement for increase in gating (conductance) of F508del NIH 3T3 cells. The driving force for the response is the creation of a chloride ion gradient in conjunction with channel activation and concurrent with compound treatment by a single liquid addition step after the cells have previously been loaded with a voltage sensing dye.
(in mM) NaCl 160, KCl 4.5, CaCl2) 2, MgCl2 1, HEPES 10, pH 7.4 with NaOH, Glucose 10.
Chloride salts in Bath Solution #1 (above) are substituted with gluconate salts.
NIH3T3 mouse fibroblasts stably expressing F508del are used for optical measurements of membrane potential. The cells are maintained at 37° C. in 5% CO2 and 90% humidity in Dulbecco's modified Eagle's medium supplemented with 2 mM glutamine, 10% fetal bovine serum, 1×NEAA, β-ME, 1× pen/strep, and 25 mM HEPES in 175 cm^2 culture flasks. For all optical assays, the cells were seeded at 12,000 cells/well in 384-well matrigel-coated plates and cultured for 18-24 hrs at 37° C. for the potentiator assay. For the correction assays, the cells are cultured at 37° C. with and without compounds for 18-24 hours.

F508del-CFTR [2] = molecular target: T1, F508del-CFTR; assay: Ussing chamber assay, chloride transport in HBE cells; format: cell-based; parameters: CF-HBE were isolated from patients homozygous for F508del; endogenous in cells; host or cells: primary CF human bronchial epithelial cells (F508del/F508del-HBE)
Protocol: Using chamber experiments were performed on polarized airway epithelial cells expressing F508del to further characterize the F508del modulators identified in the optical assays. Non-CF and CF airway epithelia were isolated from bronchial tissue, cultured as previously described (Galietta, L. J. V., Lantero, S., Gazzolo, A., Sacco, O., Romano, L., Rossi, G. A., & Zegarra-Moran, O. (1998) In Vitro Cell. Dev. Biol. 34, 478-481), and plated onto Costar® Snapwell™ filters that were precoated with NIH3T3-conditioned media. After four days the apical media was removed and the cells were grown at an air liquid interface for >14 days prior to use. […] CF-HBE were isolated from patients homozygous for F508del or compound heterozygous for F508del with a different disease causing mutation on the other allele.
HBE grown on Costar® Snapwell™ cell culture inserts were mounted in an Using chamber (Physiologic Instruments, Inc., San Diego, Calif.), and the transepithelial resistance and short-circuit current in the presence of a basolateral to apical Cl^− gradient (ISC) were measured using a voltage-clamp system (Department of Bioengineering, University of Iowa, IA). Briefly, HBE were examined under voltage-clamp recording conditions (Vhold=0 mV) at 37° C. The basolateral solution contained (in mM) 145 NaCl, 0.83 K2HPO4, 3.3 KH2PO4, 1.2 MgCl2, 1.2 CaCl2, 10 Glucose, 10 HEPES (pH adjusted to 7.35 with NaOH) and the apical solution contained (in mM) 145 NaGluconate, 1.2 MgCl2, 1.2 CaCl2), 10 glucose, 10 HEPES (pH adjusted to 7.35 with NaOH).
Typical protocol utilized a basolateral to apical membrane Cl^− concentration gradient. To set up this gradient, normal ringers was used on the basolateral membrane, whereas apical NaCl was replaced by equimolar sodium gluconate (titrated to pH 7.4 with NaOH) to give a large Cl^− concentration gradient across the epithelium. Modulators were added either to the basolateral side […] to assay or to the apical side during the assay. Forskolin (10 μM) was added to the apical side during the assay to stimulate CFTR-mediated Cl^− transport.

F508del-CFTR [3] = molecular target: T1, F508del-CFTR; assay: F508del-CFTR processing and trafficking in vitro (170 to 180 kDa band); format: cell-based; parameters: CF-HBE were isolated from patients homozygous for F508del; endogenous in cells; host or cells: primary CF human bronchial epithelial cells (F508del/F508del-HBE)
Excerpt: Processing and trafficking of F508del-CFTR was directly monitored by the appearance of a 170 to 180 kDa band.

T1 sequence (P13569 with tags, fused parts or gaps DEL508-508): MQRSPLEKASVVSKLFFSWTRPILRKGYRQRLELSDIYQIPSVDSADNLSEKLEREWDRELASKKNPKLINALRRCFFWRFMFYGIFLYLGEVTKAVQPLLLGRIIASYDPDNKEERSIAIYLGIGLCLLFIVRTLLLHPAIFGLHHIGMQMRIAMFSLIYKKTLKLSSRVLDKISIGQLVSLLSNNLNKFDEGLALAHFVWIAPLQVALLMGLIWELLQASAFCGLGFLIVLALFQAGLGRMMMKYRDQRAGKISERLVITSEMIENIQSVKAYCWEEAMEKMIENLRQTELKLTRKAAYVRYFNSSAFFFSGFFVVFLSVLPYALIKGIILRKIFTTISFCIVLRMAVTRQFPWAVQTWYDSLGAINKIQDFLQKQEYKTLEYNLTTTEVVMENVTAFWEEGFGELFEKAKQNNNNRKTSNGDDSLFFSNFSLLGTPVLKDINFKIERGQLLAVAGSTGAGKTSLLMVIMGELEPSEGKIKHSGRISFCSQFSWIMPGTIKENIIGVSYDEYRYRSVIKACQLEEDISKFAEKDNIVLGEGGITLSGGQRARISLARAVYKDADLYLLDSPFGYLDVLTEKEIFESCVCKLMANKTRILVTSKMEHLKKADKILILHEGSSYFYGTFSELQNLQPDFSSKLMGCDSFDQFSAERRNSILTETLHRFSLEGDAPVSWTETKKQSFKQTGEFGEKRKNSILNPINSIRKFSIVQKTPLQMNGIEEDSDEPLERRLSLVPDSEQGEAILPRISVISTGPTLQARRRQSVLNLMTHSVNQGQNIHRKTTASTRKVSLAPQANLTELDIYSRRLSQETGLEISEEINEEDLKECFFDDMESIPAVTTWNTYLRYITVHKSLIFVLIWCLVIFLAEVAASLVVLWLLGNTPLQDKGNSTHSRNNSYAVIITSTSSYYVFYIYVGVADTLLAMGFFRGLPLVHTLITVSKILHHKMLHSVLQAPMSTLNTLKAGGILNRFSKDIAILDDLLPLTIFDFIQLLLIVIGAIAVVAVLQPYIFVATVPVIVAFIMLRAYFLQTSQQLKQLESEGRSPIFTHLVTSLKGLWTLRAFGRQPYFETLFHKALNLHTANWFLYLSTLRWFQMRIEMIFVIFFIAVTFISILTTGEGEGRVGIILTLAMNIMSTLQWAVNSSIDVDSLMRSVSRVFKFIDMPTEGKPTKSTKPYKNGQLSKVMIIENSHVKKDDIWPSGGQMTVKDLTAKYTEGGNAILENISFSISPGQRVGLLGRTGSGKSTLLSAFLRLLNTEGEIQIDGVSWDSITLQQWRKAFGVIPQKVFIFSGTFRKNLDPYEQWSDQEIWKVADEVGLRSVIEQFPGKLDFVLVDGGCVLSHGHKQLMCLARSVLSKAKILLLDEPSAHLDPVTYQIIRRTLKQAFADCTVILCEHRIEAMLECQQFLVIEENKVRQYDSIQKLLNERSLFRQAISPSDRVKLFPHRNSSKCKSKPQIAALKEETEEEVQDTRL

SMILES	pKa (pKa determination)	EC50 (F508del-CFTR [1]; CFTR Activity, Table 120, read-out: CFTRdF508 EC50)	EC50 (F508del-CFTR [1]; F508del NIH 3T3 cells, membrane potential HTS assay, read-out: EC50)	Emax (F508del-CFTR [1]; NIH3T3, F508del NIH 3T3 cells, relative to Compound II, read-out: % Efficacy relative to Compound II)	chloride transport (F508del-CFTR [2]; F508del/F508del-HBE cells)	effect on chloride transport together with Compound II (F508del-CFTR [2]; F508del/F508del-HBE cells)	increase in steady-state levels, fold of untreated levels (F508del-CFTR [3]; F508del/F508del-HBE cells, 16 to 24 hours, 1 μM Compound I alone)	processing and trafficking of F508del-CFTR (F508del-CFTR [3]; in vitro)	potentiation of F508del-CFTR delivered to the cell surface by Compound I alone or in combination with Compound II (F508del-CFTR [2]; HBE cells)
C[C@@H]1CN(c2nc(-n3ccc(OCCC4(C(F)(F)F)CC4)n3)ccc2C(=O)NS(=O)(=O)c2ccccc2)C(C)(C)C1 [Compound I, N-(benzenesulfonyl)-6-[3-[2-[1-(trifluoromethyl)cyclopropyl]ethoxy]pyrazol-1-yl]-2-[(4S)-2,2,4-trimethylpyrrolidin-1-yl]pyridine-3-carboxamide]	4.95 ± 0.06	< 100 nM	< 3000 nM	≥ 100%	enhanced chloride transport	additive to the effect of Compound II	6.5 fold	improved the processing and trafficking of F508del-CFTR; also recorded: facilitates the processing and trafficking of F508del-CFTR	–
CC(C)(C)c1cc(C(C)(C)C)c(NC(=O)c2c[nH]c3ccccc3c2=O)cc1O [Compound III, N-(5-hydroxy-2,4-di-tert-butyl-phenyl)-4-oxo-1H-quinoline-3-carboxamide, reference compound]	–	–	–	–	–	–	–	–	potentiated
